According to ChEMBL document CHEMBL1153935, “4,4'-Dihydroxy-trans-stilbene, a resveratrol analogue, exhibited enhanced antioxidant activity and cytotoxicity” (Bioorg Med Chem, 2009):
Active and inactive are the calls of the source. The rule behind the calls is not given here.

What was measured:
[1] = system: HL-60; test: Cytotoxicity against human HL60 cells after 48 hrs by MTT assay; format: functional, cell-based; details: for IC50: HL-60, 48 h
[2] = system: Erythrocyte; test: Inhibition of Fe(2+)/ascorbate-induced lipid peroxidation in human erythrocyte ghosts assessed as inhibition of malondialdehyde formation per mg of protein at 1 uM after 30 mins; format: functional
[3] = system: Erythrocyte; test: Inhibition of Fe(2+)/ascorbate-induced lipid peroxidation in human erythrocyte ghosts assessed as inhibition of malondialdehyde formation per mg of protein at 2 uM after 30 mins; format: functional
[4] = system: Erythrocyte; test: Inhibition of Fe(2+)/ascorbate-induced lipid peroxidation in human erythrocyte ghosts assessed as inhibition of malondialdehyde formation per mg of protein at 3 uM after 30 mins; format: functional
[5] = system: Erythrocyte; test: Inhibition of Fe(2+)/ascorbate-induced lipid peroxidation in human erythrocyte ghosts assessed as inhibition of malondialdehyde formation at 1 to 5 uM; format: functional, cell-based
[6] = system: Erythrocyte; test: Inhibition of Fe(2+)/ascorbate-induced lipid peroxidation in human erythrocyte ghosts assessed as inhibition of malondialdehyde formation at 5 uM; format: functional, cell-based
[7] = system: Erythrocyte; test: Inhibition of Fe(2+)/ascorbate-induced lipid peroxidation in human erythrocyte ghosts assessed as increase in inhibition period; format: functional, cell-based
[8] = system: HL-60; test: Cytotoxicity against human HL60 cells at 10 uM after 48 hrs by MTT assay; format: functional
[9] = system: HL-60; test: Cytotoxicity against human HL60 cells at 20 uM after 48 hrs by MTT assay; format: functional
[10] = system: HL-60; test: Cytotoxicity against human HL60 cells at 30 uM after 48 hrs by MTT assay; format: functional

COc1cc([C@@H]2c3cc4c(cc3[C@@H](O[C@@H]3O[C@@H]5CO[C@@H](C)O[C@H]5[C@H](O)[C@H]3O)[C@H]3COC(=O)[C@H]23)OCO4)cc(OC)c1O [ETOPOSIDE]
IC50 [1]: 3.3 µM

Oc1ccc(/C=C/c2ccc(O)cc2)cc1 [TRANS-4,4'-DIHYDROXYSTILBENE]
Activity [2]: 0.8 nmol | Activity [3]: 0.45 nmol | Activity [4]: 0.17 nmol | IC50 [1]: 6.5 µM

Oc1ccc(/C=C/c2cc(O)cc(O)c2)cc1 [RESVERATROL]
Activity [5]: Dose-dependent effect | Activity [6]: Active | Activity [7]: Dose-dependent effect | Activity [2]: 1.33 nmol | Activity [3]: 0.61 nmol | Activity [4]: 0.18 nmol | Activity [1]: Dose-dependent effect | IC50 [1]: 36.3 µM | Activity [8]: 83% | Activity [9]: 72% | Activity [10]: 43%
